Among the data in patent US9902696B2, “1,4-substituted piperidine derivatives” (Cephalon, Inc., priority 2015, dated 2018) are IC50 values, retold here.

Where a name gives a salt, the structure may show the parent alone.

The target in the first test is T1, recombinant human baculovirus-expressed GST-tagged FASN (Homo sapiens, UniProt P49327).
T1 construct: GST
T1 sequence (P49327 whole entry): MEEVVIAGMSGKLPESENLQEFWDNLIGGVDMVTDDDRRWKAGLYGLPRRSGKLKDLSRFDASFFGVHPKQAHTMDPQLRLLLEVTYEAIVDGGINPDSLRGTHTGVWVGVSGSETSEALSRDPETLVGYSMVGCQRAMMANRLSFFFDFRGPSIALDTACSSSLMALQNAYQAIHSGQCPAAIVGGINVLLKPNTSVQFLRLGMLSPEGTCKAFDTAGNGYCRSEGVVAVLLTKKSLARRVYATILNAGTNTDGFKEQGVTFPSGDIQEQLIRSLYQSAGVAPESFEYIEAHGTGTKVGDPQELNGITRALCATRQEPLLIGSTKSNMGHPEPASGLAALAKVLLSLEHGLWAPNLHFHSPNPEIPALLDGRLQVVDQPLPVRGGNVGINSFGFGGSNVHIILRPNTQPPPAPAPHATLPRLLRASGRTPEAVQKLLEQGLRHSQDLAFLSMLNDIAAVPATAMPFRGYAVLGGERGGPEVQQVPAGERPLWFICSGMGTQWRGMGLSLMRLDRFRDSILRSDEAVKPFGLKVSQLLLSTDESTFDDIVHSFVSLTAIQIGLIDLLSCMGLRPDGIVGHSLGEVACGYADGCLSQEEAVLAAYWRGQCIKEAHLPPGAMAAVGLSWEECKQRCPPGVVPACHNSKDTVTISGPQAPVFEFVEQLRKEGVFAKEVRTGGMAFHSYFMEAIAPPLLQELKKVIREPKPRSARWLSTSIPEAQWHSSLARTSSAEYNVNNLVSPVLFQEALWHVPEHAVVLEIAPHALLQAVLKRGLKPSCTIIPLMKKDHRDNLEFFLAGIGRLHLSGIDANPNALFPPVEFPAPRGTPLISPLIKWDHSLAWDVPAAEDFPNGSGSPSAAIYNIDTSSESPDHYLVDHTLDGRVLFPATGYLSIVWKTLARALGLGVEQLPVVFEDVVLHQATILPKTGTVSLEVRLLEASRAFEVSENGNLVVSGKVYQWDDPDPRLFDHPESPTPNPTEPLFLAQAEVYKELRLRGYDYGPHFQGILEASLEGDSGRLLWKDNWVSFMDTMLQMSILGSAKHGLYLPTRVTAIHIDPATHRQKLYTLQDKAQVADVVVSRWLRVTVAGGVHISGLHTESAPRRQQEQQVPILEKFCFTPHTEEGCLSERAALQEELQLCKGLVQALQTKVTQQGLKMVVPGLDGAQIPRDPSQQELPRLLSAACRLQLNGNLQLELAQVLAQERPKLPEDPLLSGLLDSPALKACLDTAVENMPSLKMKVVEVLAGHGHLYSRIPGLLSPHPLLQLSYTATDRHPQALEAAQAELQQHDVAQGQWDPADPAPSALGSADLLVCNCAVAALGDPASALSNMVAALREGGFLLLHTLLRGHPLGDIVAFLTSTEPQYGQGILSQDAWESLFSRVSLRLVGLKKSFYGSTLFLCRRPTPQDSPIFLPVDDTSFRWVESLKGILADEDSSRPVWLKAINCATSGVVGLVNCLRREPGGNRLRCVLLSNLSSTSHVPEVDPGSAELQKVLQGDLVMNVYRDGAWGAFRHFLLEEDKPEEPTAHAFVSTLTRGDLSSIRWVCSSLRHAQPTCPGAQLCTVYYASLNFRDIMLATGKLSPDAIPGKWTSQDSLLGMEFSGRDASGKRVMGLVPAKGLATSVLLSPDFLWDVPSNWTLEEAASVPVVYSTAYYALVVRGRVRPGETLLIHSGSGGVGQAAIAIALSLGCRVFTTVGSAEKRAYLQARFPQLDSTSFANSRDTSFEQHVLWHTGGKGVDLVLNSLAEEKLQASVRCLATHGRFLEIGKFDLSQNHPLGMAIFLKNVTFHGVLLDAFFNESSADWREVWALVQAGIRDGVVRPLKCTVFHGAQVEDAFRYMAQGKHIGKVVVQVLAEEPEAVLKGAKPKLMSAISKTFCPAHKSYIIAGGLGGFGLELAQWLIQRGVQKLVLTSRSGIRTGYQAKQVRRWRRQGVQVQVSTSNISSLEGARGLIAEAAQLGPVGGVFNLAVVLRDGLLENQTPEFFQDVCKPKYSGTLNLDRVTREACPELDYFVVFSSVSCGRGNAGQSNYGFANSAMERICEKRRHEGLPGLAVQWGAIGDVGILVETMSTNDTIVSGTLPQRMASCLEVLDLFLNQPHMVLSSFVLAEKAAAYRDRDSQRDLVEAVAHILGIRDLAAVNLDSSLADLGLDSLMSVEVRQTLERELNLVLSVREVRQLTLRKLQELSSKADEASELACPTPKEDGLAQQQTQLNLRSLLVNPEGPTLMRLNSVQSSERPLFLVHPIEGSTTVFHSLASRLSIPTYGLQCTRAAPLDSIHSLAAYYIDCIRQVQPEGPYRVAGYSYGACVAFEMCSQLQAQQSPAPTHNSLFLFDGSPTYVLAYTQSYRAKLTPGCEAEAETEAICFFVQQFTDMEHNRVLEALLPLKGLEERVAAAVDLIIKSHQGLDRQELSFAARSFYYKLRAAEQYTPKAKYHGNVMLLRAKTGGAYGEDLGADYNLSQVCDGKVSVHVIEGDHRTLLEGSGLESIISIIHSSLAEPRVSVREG
Put plainly: FASN enzyme activity assay, fluorescence-based detection of CoA with CPM. The format is biochemical. As to conditions: 5 nM FASN, 150 μM NADPH, 10 μM acetyl-CoA, 25 μM malonyl-CoA, 90 minutes incubation; read-out: IC50 data for Additional Compounds of Formulae I-V(a): Activity. In short, it runs like this: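 Human GST-tagged FASN, baculovirus-expressed (5 nM), in 50 mM HEPES pH 7.5 with 150 μM NADPH, 10 μM acetyl-CoA, 25 μM malonyl-CoA, 0.5% DMSO; malonyl-CoA-started, 90 min. Released CoA detected with CPM (50 μM dilution), 30 min, fluorescence ex 390/em 530. IC50 from variable-slope sigmoidal fit of % inhibition versus log concentration.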
For `COCCNC(=O)N1CCC(Oc2ccc(-c3ccc4cccnc4c3C)cc2)CC1` [Example 542, N-(2-Methoxyethyl)-4-[4-(8-methyl-7-quinolyl)phenoxy]piperidine-1-carboxamide HCl], the IC50 fell in the range of 0.001 to 0.099 µM. As to `CCNC(=O)N1CCC(Oc2ccc(-c3ccc4ccnn4c3C)cc2)CC1` [Example 536, N-Ethyl-4-[4-(7-methylpyrazolo[1,5-a]pyridin-6-yl)phenoxy]piperidine-1-carboxamide], the IC50 is 1 to 10 µM. On the same count and under the same terms, next, `Cc1c(-c2ccc(OC3CCN(C(=O)OCC(C)C)CC3)cc2)ccc2nccn12` [Example 602, Isobutyl 4-[4-(5-methylimidazo[1,2-a]pyridin-6-yl)phenoxy]piperidine-1-carboxylate]: 1 to 10 µM; `Cc1c(-c2ccc(OC3CCN(C(N)=O)CC3)cc2)ccc2nccn12` [Example 615, 4-[4-(5-Methylimidazo[1,2-a]pyridin-6-yl)phenoxy]piperidine-1-carboxamide]: 1 to 10 µM. For the molecule `CCNC(=O)N1CCC(Oc2ccc(-c3ccc4ccc(O)nc4c3C)cc2)CC1` [Example 529, N-Ethyl-4-[4-(2-hydroxy-8-methyl-7-quinolyl)phenoxy]piperidine-1-carboxamide], the IC50 was 1 to 10 µM. Take `CCNC(=O)N1CCC(Oc2ccc(-c3ccn4ccnc4c3C)cc2)CC1` [Example 629, N-Ethyl-4-[4-(8-methylimidazo[1,2-a]pyridin-7-yl)phenoxy]piperidine-1-carboxamide, HCl]: the IC50 is 1 to 10 µM.

The same test, now with this note: 5 nM FASN, 150 μM NADPH, 10 μM acetyl-CoA, 25 μM malonyl-CoA, 90 minutes incubation; read-out: IC50 data for Compounds of Formulae I-V/V(a): Activity.
On to `CS(=O)(=O)N1CCC(Oc2ccc(-c3cnc4ccccc4c3)cc2)CC1` [Example 162, 3-[4-(1-Methanesulfonyl-piperidin-4-yloxy)-phenyl]-quinoline], for which the IC50 lay within 1 to 10 µM. In the case of `Cc1ccc2ccc(-c3ccc(OC4CCN(C(=O)C5CC5)CC4)cc3)c(F)c2n1` [Example 26, Cyclopropyl-{4-[4-(8-fluoro-2-methylquinolin-7-yl)-phenoxy]-piperidin-1-yl}-methanone], the IC50 lay in the range of 1 to 10 µM. Consider `CNC(=O)N1CCC(Oc2ccc(-c3ccc4cccnc4c3C)cc2)CC1` [Example 95, N-methyl-4-[4-(8-methyl-7-quinolyl)phenoxy]piperidine-1-carboxamide], for which the IC50 was in the range of 0.001 to 0.099 µM.

Regarding `CC(C)C(=O)N1CCC(Oc2ccc(-c3cnc4ccccc4c3)cn2)CC1` [Example 133, 2-Methyl-1-[4-(5-quinolin-3-yl-pyridin-2-yloxy)-piperidin-1-yl]-propan-1-one, HCl], the IC50 is 1 to 10 µM. For `CCC(=O)N1CCC(Oc2ccc(-c3ccc4cccnc4c3)cn2)CC1` [Example 135, 1-[4-(5-Quinolin-7-yl-pyridin-2-yloxy)-piperidin-1-yl]-propan-1-one, HCl], the IC50 lay in the range of 0.1 to 0.999 µM.

In the case of `O=C(C1CC1)N1CCC(Oc2cc(F)c(-c3cnc4ccccc4c3)cc2F)CC1` [Example 217, Cyclopropyl-[4-(2,5-difluoro-4-quinolin-3-yl-phenoxy)-piperidin-1-yl]-methanone], the IC50 was in the range of 0.1 to 0.999 µM.

Consider `Cc1cc2cccnc2cc1-c1ccc(OC2CCN(C(=O)[C@H]3CCCO3)CC2)cc1` [Example 275, {4-[4-(6-Methylquinolin-7-yl)-phenoxy]-piperidin-1-yl}-(R)-tetrahydro-furan-2-yl-methanone], for which the IC50 fell in the range of 0.1 to 0.999 µM. With `Cc1c(-c2ccc(OC3CCN(C(=O)C4CC4)CC3)cc2)ccc2cccnc12` [Example 37, Cyclopropyl-{4-[4-(8-methylquinolin-7-yl)-phenoxy]-piperidin-1-yl}-methanone], the IC50 is 0.001 to 0.099 µM. Take `CCC(=O)N1CCC(Oc2ccc(-c3ccc4nccn4c3)cc2)CC1` [Example 256, 1-[4-(4-Imidazo[1,2-a]pyridin-6-yl-phenoxy)-piperidin-1-yl]-propan-1-one, TFA salt]: the IC50 lay within 0.1 to 0.999 µM. Take `O=C(N1CCC(Oc2ccc(-c3cnc4ccccc4n3)cc2)CC1)N1CCCO1` [Example 81, Isoxazolidin-2-yl-[4-(4-quinoxalin-2-yl-phenoxy)-piperidin-1-yl]-methanone]: the IC50 was 0.001 to 0.099 µM. Regarding `CCC(=O)N1CCC(Oc2ccc(-c3cnc4cc(OC)c(F)cc4c3)cc2)CC1` [Example 444, 1-{4-[4-(6-Fluoro-7-methoxyquinolin-3-yl)-phenoxy]-piperidin-1-yl}-propan-1-one], the IC50 was 1 to 10 µM. For the molecule `O=C(C1CC1)N1CCC(Oc2ccc(-c3cncc(-c4ccccc4)c3)cc2)CC1` [Example 384, Cyclopropyl-{4-[4-(5-phenyl-pyridin-3-yl)-phenoxy]-piperidin-1-yl}-methanone, TFA salt], the IC50 is 1 to 10 µM.

As to `CN(C)c1c(-c2ccc(OC3CCN(C(=O)[C@H]4CCCO4)CC3)cc2)cnc2ccccc12` [Example 233, {4-[4-(4-Dimethylaminoquinolin-3-yl)-phenoxy]-piperidin-1-yl}-(R)-tetrahydrofuran-2-yl-methanone], the IC50 was in the range of 1 to 10 µM.

As to `Cc1c(-c2ccc(OC3CCN(C(=O)C4CCCO4)CC3C)cc2)ccc2cccnc12` (stereo in doubt) [Example 377, {3-Methyl-4-[4-(8-methylquinolin-7-yl)-phenoxy]-piperidin-1-yl}-(R)-tetrahydrofuran-2-yl-methanone, TFA salt], the IC50 was 0.001 to 0.099 µM.

For the molecule `CCONC(=O)N1CCC(Oc2ccc(-c3ccc4cccnc4c3C)cc2)CC1` [Example 93, N-ethoxy-4-[4-(8-methyl-7-quinolyl)phenoxy]piperidine-1-carboxamide], the IC50 is 0.001 to 0.099 µM. Take `N#CCC(=O)N1CCC(Oc2ccc(-c3cnc4ccccc4c3)cc2)CC1` [Example 218, 3-Oxo-3-[4-(4-quinolin-3-yl-phenoxy)-piperidin-1-yl]-propionitrile]: the IC50 was 1 to 10 µM.

As for `O=C([C@H]1CCCO1)N1CCC(Oc2ccc(-c3ccc4nccn4c3Cl)cc2)CC1` [Example 295, {4-[4-(5-Chloroimidazo[1,2-a]pyridin-6-yl)-phenoxy]-piperidin-1-yl}-(R)-tetrahydrofuran-2-yl-methanone], the IC50 is 0.001 to 0.099 µM. For the molecule `Cc1c(-c2ccc(OC3CCN(C(=O)C4CC4(C)C)CC3)cc2)ccc2cccnc12` (centres unmarked) [Example 322, (2,2-Dimethylcyclopropyl)-{4-[4-(8-methyl-quinolin-7-yl)-phenoxy]-piperidin-1-yl}-methanone], the IC50 lay within 0.001 to 0.099 µM. As for `CC(C)C(=O)N1CCC(Oc2ccc(-c3cnc4cccnc4c3)cc2)CC1` [Example 13, 2-Methyl-1-[4-(4-1,5-naphthyridin-3-yl-phenoxy)-piperidin-1-yl]-propan-1-one], the IC50 lay in the range of 1 to 10 µM. For `CC(C)C(=O)N1CCC(Oc2ccc(-c3ccc4cnccc4c3)nc2)CC1` [Example 148, 1-[4-(6-Isoquinolin-6-yl-pyridin-3-yloxy)-piperidin-1-yl]-2-methyl-propan-1-one, 2HCl], the IC50 is 1 to 10 µM. The same measure, in the same setting: next, `COc1cc2ncc(-c3ccc(OC4CCN(C(=O)C5CC5)CC4)cc3)cc2cc1Cl` [Example 448, {4-[4-(6-Chloro-7-methoxyquinolin-3-yl)-phenoxy]-piperidin-1-yl}-cyclopropylmethanone]: 1 to 10 µM; `Cc1c(-c2ccc(OC3CCN(C(=O)N(C)C)CC3)cc2)ccc2cccnc12` [Example 89, N,N-dimethyl-4-[4-(8-methyl-7-quinolyl)phenoxy]piperidine-1-carboxamide]: 0.001 to 0.099 µM. In the case of `CCC(=O)N1CC[C@@H](Oc2ccc(-c3ccc4cccnc4c3)cc2)C1` [Example 344, (R)-1-(3-(4-(Quinolin-7-yl)phenoxy)pyrrolidin-1-yl)propan-1-one, HCl], the IC50 was 0.1 to 0.999 µM. Regarding `Cc1cc(-c2cnc3ccccc3c2)ccc1OC1CCN(C(=O)C(C)C)CC1` [Example 213, 2-Methyl-1-[4-(2-methyl-4-quinolin-3-yl-phenoxy)-piperidin-1-yl]-propan-1-one], the IC50 was 1 to 10 µM. Still for that read-out and setting: next, `Cc1cnc2cc(-c3ccc(OC4CCN(C(=O)C5CC5)CC4)cc3)ccc2c1` [Example 282, Cyclopropyl-{4-[4-(3-methylquinolin-7-yl)-phenoxy]-piperidin-1-yl}-methanone]: 1 to 10 µM; `CC(C)C(=O)N1CCC(S(=O)(=O)c2ccc(-c3ccc4ccncc4c3)cc2)CC1` [Example 513, 1-[4-(4-Isoquinolin-7-yl-benzenesulfonyl)-piperidin-1-yl]-2-methylpropan-1-one]: 1 to 10 µM. `Cc1c(-c2ccc(OC3CCN(C(=O)[C@@H]4CCCO4)CC3)cc2)ccc2cccnc12` [Example 70, {4-[4-(8-Methylquinolin-7-yl)-phenoxy]-piperidin-1-yl}-(S)-tetrahydro-furan-2-yl-methanone]: the IC50 lay within 0.001 to 0.099 µM. In the case of `O=C(C1CC1)N1CCC(Oc2ccc(-c3cncc(Oc4ccccc4)c3)cc2)CC1` [Example 399, Cyclopropyl-{4-[4-(5-phenoxy-pyridin-3-yl)-phenoxy]-piperidin-1-yl}-methanone, HCl], the IC50 was in the range of 1 to 10 µM. On to `CCC(=O)N1CCC(Oc2ccc(-c3cnc4ccccc4c3N(C)C)cc2)CC1` [Example 232, 1-{4-[4-(4-Dimethylaminoquinolin-3-yl)-phenoxy]-piperidin-1-yl}-propan-1-one], for which the IC50 was in the range of 1 to 10 µM. The same measure, in the same setting: next, `CCC(=O)N1CCC(Oc2cc(F)c(-c3cnc4ccccc4c3)cc2F)CC1` [Example 215, 1-[4-(2,5-Difluoro-4-quinolin-3-yl-phenoxy)-piperidin-1-yl]-propan-1-one]: 0.1 to 0.999 µM; `Cc1cc(OC2CCN(C(=O)C(C)C)CC2)ccc1-c1cnc2ccccc2c1` [Example 206, 2-Methyl-1-[4-(3-methyl-4-quinolin-3-yl-phenoxy)-piperidin-1-yl]-propan-1-one]: 1 to 10 µM; `CO[C@H](C)C(=O)N1CCC(Oc2ccc(-c3cnc4ccccc4c3)cc2)CC1` [Example 108, (R)-2-Methoxy-1-[4-(4-quinolin-3-yl-phenoxy)-piperidin-1-yl]-propan-1-one, 2HCl]: 0.1 to 0.999 µM.
